Source: US7858657B2 (Proix Pharmaceutical Corp., priority 2004, dated 2010)
Several values for one entry are separate records, joined by “and”; a condition that tells them apart may be missing. Equal entries are not always repeated.

Experiments:
[1] = tested on: HT-29 xenograft phosphor-Akt; assay: Inhibition of HT-29 xenograft phospho-Akt by wortmannin analogs (pharmacodynamics); format: in vivo
Protocol: The pharmacodynamics of various wortmannin analogs were tested. […] PX-866 was administered intraperitoneal, intravenously and orally.

[2] = tested on: OvCaR-3 ovarian; assay: Antitumor activity of wortmannin analogs, OvCaR-3 ovarian tumor (Table 1); format: in vivo; conditions: initial tumor vol 120 mm^3, 8 mg/kg/day ip Q1D × 9
[3] = tested on: A-549 lung; assay: Antitumor activity of wortmannin analogs, A-549 lung tumor (Table 1); format: in vivo
[4] = tested on: Panc-1 pancreatic; assay: Antitumor activity of cytotoxic drugs alone or combined with PX-866, Panc-1 pancreatic (Table 2); format: in vivo; conditions: for Alone Growth delay days / Alone TGI % / Alone log cell kill: size 75 mm^3
[5] = tested on: HT-29 colon; assay: Antitumor activity of cytotoxic drugs alone or combined with PX-866, HT-29 colon (Table 2); format: in vivo; conditions: for Alone Growth delay days / Alone TGI % / Alone log cell kill: size 150 mm^3
[6] = biological target: T1, p110β/p85α (Homo sapiens, UniProt P42338); assay: Inhibition of recombinant PtdIns-3-kinase, [32P]-ATP dependent phosphorylation of PtdIns; format: biochemical; conditions: recombinant enzyme
T1 construct: purchased Upstate (Charlottesville, Va.)
T1 sequence (P42338 whole entry): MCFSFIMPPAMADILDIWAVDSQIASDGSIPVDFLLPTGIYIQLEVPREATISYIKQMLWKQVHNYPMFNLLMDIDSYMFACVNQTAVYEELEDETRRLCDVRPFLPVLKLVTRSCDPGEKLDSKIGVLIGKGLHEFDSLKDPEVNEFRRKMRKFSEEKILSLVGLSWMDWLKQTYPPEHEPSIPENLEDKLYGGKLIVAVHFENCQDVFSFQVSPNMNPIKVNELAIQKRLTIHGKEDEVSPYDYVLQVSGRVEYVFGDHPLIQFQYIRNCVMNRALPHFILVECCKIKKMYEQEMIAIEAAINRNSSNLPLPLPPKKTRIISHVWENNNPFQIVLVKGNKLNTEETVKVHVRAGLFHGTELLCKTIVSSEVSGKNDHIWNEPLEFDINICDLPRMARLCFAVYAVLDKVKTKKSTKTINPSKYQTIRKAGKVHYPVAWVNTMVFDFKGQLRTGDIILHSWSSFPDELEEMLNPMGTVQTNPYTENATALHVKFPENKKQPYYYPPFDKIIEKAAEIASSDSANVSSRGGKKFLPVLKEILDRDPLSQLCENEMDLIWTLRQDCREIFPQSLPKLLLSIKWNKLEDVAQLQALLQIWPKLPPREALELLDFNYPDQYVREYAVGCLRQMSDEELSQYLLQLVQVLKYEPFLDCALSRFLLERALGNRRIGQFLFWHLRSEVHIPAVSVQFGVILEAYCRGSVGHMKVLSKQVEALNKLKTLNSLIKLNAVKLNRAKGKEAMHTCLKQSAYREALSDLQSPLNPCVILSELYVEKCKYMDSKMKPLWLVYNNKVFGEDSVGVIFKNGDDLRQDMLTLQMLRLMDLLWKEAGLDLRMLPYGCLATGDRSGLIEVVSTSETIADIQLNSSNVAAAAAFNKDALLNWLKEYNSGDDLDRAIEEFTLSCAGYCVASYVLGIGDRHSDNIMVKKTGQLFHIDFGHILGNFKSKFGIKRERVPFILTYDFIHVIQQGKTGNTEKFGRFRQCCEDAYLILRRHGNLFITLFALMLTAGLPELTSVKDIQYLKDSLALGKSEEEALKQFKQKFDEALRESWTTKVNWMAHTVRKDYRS
T1 sequence (P27986 whole entry partner): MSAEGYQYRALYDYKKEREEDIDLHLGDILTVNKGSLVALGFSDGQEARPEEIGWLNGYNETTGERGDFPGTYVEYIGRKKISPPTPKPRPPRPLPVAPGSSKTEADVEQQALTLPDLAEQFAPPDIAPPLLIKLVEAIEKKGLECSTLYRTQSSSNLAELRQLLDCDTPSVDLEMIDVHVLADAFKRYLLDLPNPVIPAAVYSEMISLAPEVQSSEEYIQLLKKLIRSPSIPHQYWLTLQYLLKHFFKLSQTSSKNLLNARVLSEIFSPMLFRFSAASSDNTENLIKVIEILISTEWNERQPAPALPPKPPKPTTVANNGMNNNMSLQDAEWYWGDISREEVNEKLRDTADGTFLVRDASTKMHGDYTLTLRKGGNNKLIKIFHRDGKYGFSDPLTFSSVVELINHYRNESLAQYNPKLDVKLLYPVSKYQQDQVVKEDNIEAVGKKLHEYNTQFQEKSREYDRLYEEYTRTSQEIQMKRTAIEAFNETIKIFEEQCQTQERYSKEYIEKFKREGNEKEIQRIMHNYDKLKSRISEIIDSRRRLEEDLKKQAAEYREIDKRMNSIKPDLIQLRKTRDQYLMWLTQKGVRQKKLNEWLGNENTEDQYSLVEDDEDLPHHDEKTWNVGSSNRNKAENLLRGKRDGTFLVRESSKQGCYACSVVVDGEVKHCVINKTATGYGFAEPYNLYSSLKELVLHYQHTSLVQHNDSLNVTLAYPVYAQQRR
Source text: (§1) Materials and Methods. Compounds. […] Rabbit purified anti-phosphoSer473-Akt antibody, anti-Akt antibody, antiphospho Tyr1086-EGF-receptor antibody and anti-EGFR antibody were obtained from Cell Signaling Technology (Beverly, Mass.). Human recombinant p110α/p85α, p110β/p85α, p120 (and p110*/p85α PtdIns-3-kinases were obtained from Upstate (Charlottesville, Va.). Metformin hydrochloride was obtained from Spectrum Chemical (Gardena, Calif.), pioglitazone hydrochloride and recombinant human insulin from Sigma Chemical (St. Louis).
(§2) Measurement of PtdIns-3-kinase.

[7] = biological target: T2, p110δ/p85α (Homo sapiens, UniProt O00329); assay: as above; format: biochemical; conditions: recombinant enzyme
T2 construct: purchased Upstate (Charlottesville, Va.)
T2 sequence (O00329 whole entry): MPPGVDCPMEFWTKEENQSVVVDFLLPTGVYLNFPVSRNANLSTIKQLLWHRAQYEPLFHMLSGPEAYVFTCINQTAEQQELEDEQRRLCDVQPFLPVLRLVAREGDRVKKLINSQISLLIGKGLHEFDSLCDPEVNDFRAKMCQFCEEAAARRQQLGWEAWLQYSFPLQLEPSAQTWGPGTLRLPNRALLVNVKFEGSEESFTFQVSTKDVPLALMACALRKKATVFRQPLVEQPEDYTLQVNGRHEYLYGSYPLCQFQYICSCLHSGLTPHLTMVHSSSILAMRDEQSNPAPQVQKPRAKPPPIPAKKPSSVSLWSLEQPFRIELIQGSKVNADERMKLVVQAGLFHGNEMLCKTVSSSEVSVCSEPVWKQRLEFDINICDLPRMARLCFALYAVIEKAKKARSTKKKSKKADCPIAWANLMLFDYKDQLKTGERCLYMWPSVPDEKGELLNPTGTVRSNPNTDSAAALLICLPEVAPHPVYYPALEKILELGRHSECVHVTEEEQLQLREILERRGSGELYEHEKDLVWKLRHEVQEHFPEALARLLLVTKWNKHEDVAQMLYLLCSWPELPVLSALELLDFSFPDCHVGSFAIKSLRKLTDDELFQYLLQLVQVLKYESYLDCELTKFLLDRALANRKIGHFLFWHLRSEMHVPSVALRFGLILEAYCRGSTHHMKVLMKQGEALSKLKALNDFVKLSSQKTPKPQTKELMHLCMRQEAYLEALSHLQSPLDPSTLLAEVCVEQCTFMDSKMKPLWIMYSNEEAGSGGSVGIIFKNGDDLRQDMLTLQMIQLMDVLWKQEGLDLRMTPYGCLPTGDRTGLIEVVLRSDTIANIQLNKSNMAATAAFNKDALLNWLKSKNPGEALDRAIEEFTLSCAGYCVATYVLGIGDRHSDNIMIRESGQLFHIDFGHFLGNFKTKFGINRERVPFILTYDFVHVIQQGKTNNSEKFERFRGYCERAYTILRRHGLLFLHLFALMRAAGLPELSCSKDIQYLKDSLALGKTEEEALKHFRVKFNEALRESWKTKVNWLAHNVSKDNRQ
T2 sequence (P27986 whole entry partner): as the sequence (P27986 whole entry partner) above
Source text: as §1, §2

[8] = biological target: T3, p120γ (Homo sapiens, UniProt P48736); assay: as above; format: biochemical; conditions: recombinant enzyme
T3 construct: purchased Upstate (Charlottesville, Va.)
T3 sequence (P48736 whole entry): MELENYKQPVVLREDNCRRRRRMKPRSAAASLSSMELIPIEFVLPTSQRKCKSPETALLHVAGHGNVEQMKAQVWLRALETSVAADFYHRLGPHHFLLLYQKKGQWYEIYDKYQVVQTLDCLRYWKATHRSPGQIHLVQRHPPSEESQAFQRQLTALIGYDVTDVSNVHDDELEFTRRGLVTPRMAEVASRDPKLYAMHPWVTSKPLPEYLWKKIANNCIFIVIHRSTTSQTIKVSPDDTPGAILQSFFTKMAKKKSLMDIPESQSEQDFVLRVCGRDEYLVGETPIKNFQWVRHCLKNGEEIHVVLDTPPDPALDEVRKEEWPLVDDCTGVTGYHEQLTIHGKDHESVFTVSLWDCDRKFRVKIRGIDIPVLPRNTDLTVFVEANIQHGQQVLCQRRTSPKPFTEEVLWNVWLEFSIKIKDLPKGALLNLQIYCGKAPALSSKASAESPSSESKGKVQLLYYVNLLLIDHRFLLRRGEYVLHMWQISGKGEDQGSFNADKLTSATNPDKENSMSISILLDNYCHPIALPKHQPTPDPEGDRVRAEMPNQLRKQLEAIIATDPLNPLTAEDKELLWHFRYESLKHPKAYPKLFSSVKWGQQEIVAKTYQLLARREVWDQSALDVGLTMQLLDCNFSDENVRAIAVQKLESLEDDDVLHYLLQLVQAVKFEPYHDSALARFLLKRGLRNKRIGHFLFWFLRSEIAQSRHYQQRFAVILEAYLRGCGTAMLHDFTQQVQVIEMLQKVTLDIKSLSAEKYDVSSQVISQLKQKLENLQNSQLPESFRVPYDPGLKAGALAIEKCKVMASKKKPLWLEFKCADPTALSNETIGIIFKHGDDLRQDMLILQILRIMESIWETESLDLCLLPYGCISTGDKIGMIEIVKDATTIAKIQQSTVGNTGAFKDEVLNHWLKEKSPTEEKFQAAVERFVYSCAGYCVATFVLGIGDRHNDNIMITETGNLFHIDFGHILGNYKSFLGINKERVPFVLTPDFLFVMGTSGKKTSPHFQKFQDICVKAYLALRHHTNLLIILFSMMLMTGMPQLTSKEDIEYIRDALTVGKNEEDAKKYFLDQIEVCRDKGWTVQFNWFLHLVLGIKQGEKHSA
Source text: as §1, §2

[9] = tested on: phospho-Akt in A-549 cells; assay: cells; format: cell-based; conditions: Homo sapiens, A549; A-549 cells in media containing 10% fbs; read-out: IC50, inhibition of phospho-Akt
Protocol: Cells. […] All cell lines were tested to be mycoplasma free using a PCR ELISA kit (Roche Diagnostics Inc., Indianapolis, Ind.).
as §2

[10] = tested on: A-549 human nsc lung cancer xenografts; assay: Antitumor studies, PX-866 and gefitinib in A-549 xenografts; format: in vivo, scid mice; conditions: for Tumor T/C %, PX-844 4 hrs before gefitinib / Tumor T/C %: 100 mm3 tumors; for Tumor T/C %: end of dosing period
Protocol: Antitumor Studies. […] When the tumors reached 100 or 600 mm3 the mice were stratified into groups of 8 animals having approximately equal mean tumor volumes and drug administration was started. […] Animals were weighed weekly and tumor diameters were measured twice weekly at right angles (d short and d long) with electronic calipers and tumor volumes calculated by the formula volume=(dshort)2×(dlong))2. When the tumor reached 2,000 mm3 or more, or became necrotic the animals were euthanized.
In vivo antitumor studies. […] Tumors were allowed to grow to a mean volume of […] before drug treatment was started every other day for 14 doses. Antitumor activity is expressed as the % volume of the treated tumor/control tumor (T/C %) at the end of the dosing period. There were 8 mice in each group and all differences are p<0.01.

[11] = Toxicity of long term PX-866 administration, scid mice; format: in vivo; conditions: for ALT: 24 hr after last dose, mean of 4 mice ± SE; for gain in body weight as % of the control weight gain: over the 4 weeks of treatment
Protocol: Toxicity Studies. […] The mice were killed 24 hr after the last dose and changes in body weight, blood lymphocyte, neutrophil, red blood cell, platelet counts, serum glucose, aspartate amino transferase (AST), and amino alanine transferase (ALT) were measured.
Values are the mean of 4 mice per group±SE.

[12] = tested on: A-673 thabdomyosarcom xenografts; assay: Antitumor effect of PX-866 with bevacizumab, A-673 xenografts; format: in vivo; conditions: PX-866 intravenously or orally every three days in combination with bevacizumab (FIG. 14)
Protocol: PX-866 was administered at varying doses intravenously or orally every three days alone or in combination with bevacizumab.

[13] = initial tumor vol 60 mm^3, 4 mg/kg/day po Q1D × 9
[14] = initial tumor vol 60 mm^3, 12 mg/kg/day iv Q1D × 9
[15] = initial tumor vol 65 mm^3, 6 mg/kg/day ip Q1D × 9
[16] = initial tumor vol 65 mm^3, 9 mg/kg/day ip Q1D × 9
[17] = PX-866 iv 15 mg/kg Q3D × 3 combined with gemcitabine ip 150 mg/kg Q3D × 3
[18] = PX-866 po 5 mg/kg Q3D × 3 combined with gemcitabine ip 150 mg/kg Q3D × 3
[19] = PX-866 iv 10 mg/kg Q2D × 3 combined with cisplatin ip 2.5 mg/kg Q2D × 3
[20] = PX-866 po 2.5 mg/kg Q2D × 3 combined with cisplatin ip 2.5 mg/kg Q2D × 3
[21] = PX-866 1.5 mg/kg po every other day for 14 doses, mean ± SE
[22] = PX-866 3 mg/kg po every other day for 14 doses, mean ± SE
[23] = PX-866 10 mg/kg iv every other day for 14 doses, mean ± SE

For C=CCN(/C=C1/C(=O)O[C@H](COC)[C@@]2(C)C1=C(O)C(=O)C1=C2[C@H](OC(C)=O)C[C@]2(C)C(=O)CC[C@@H]12)CC=C [PX-866], the “inhibition of HT-29 xenograft phosphor-Akt” value ([1]; dose dependency, PX-866, PX-867 and PX-881 compared (FIG. 1A)) was “greatest inhibitory activity”, the “inhibition of HT-29 xenograft phosphor-Akt over time by route” value ([1]; oral compared with intraperitoneal and intravenous (FIG. 1B)) was “more consistent inhibition over a longer period of time” and the “Growth Delay” value [2] was 12 days. The Log10 cell kill [2] was 1.2, the “T/C % (optimal test/control)” value ([2]; day 40) was 30 (40) % and the “Growth Delay” value [3, 13] was 6 days. For the same compound, the Log10 cell kill [3, 13] was 0.9, the “T/C % (optimal test/control)” value ([3]; initial tumor vol 60 mm^3, 4 mg/kg/day po Q1D × 9, day 21) was 47 (21) % and the “Growth Delay” value [3, 14] was 5 days. For the same compound, the Log10 cell kill [3, 14] was 0.7, the “T/C % (optimal test/control)” value ([3]; initial tumor vol 60 mm^3, 12 mg/kg/day iv Q1D × 9, day 21) was 45 (21) % and the “Growth Delay” value [3, 15] was 4 days. For the same compound, the Log10 cell kill [3, 15] was 0.2, the “T/C % (optimal test/control)” value ([3]; initial tumor vol 65 mm^3, 6 mg/kg/day ip Q1D × 9, day 32) was 62 (32) % and the “Growth Delay” value [3, 16] was 8 days. The Log10 cell kill [3, 16] was 0.4, the “T/C % (optimal test/control)” value ([3]; initial tumor vol 65 mm^3, 9 mg/kg/day ip Q1D × 9, day 32) was 26 (32) % and the “Combined Growth delay days” value [4, 17] was 8 days. For the same compound, the “Combined TGI %” value [4, 17] was 49%, the “Combined log cell kill” value [4, 17] was 0.2 and the “Combined Growth delay days” value [4, 18] was 19 days. For the same compound, the “Combined TGI %” value [4, 18] was 60%, the “Combined log cell kill” value [4, 18] was 0.5 and the “Alone Growth delay days” value ([4]; PX-866 iv 15 mg/kg Q3D × 3) was 4 days. For the same compound, the “Alone TGI %” value ([4]; PX-866 iv 15 mg/kg Q3D × 3) was 16%, the “Alone log cell kill” value ([4]; PX-866 iv 15 mg/kg Q3D × 3) was 0.1 and the “Alone Growth delay days” value ([4]; PX-866 po 5 mg/kg Q3D × 3) was 0 days. For the same compound, the “Alone TGI %” value ([4]; PX-866 po 5 mg/kg Q3D × 3) was 14%, the “Alone log cell kill” value ([4]; PX-866 po 5 mg/kg Q3D × 3) was 0 and the “Combined Growth delay days” value [5, 19] was 6 days. The “Combined TGI %” value [5, 19] was 56%, the “Combined log cell kill” value [5, 19] was 0.5 and the “Combined Growth delay days” value [5, 20] was 8 days. The “Combined TGI %” value [5, 20] was 63%, the “Combined log cell kill” value [5, 20] was 0.7 and the “Alone Growth delay days” value ([5]; PX-866 iv 10 mg/kg Q2D × 3) was 0 days. The “Alone TGI %” value ([5]; PX-866 iv 10 mg/kg Q2D × 3) was 11%, the “Alone log cell kill” value ([5]; PX-866 iv 10 mg/kg Q2D × 3) was 0.3 and the “Alone Growth delay days” value ([5]; PX-866 po 2.5 mg/kg Q2D × 3) was 1 days. For the same compound, the “Alone TGI %” value ([5]; PX-866 po 2.5 mg/kg Q2D × 3) was 29%, the “Alone log cell kill” value ([5]; PX-866 po 2.5 mg/kg Q2D × 3) was 0.1 and the IC50 [6] was > 300 nM. The IC50 [7] was 2.7 nM, the IC50 [8] was 9 nM and the IC50 [9] was 25 nM. The “Tumor T/C %, PX-844 4 hrs before gefitinib” value ([10]; PX-866 IV 4 mg/kg QOD × 14, 4 hr before gefitinib 75 mg/kg po) was 20.5%, the “Tumor T/C %” value ([10]; PX-866 IV 4 mg/kg QOD × 14 alone) was 65.3% and the “Tumor T/C %, PX-844 4 hrs before gefitinib” value ([10]; PX-866 IV 9 mg/kg QOD × 14, 4 hr before gefitinib 75 mg/kg po) was 22% and 22.3%. The “Tumor T/C %” value ([10]; PX-866 IV 9 mg/kg QOD × 14 alone, 9 mg/kg) was 31% and 31.5%, the “Tumor T/C %, PX-844 4 hrs before gefitinib” value ([10]; PX-866 PO 1 mg/kg QOD × 14, 4 hr before gefitinib 75 mg/kg po) was 40.8% and the “Tumor T/C %” value ([10]; PX-866 PO 1 mg/kg QOD × 14 alone) was 54.8%. The “Tumor T/C %, PX-844 4 hrs before gefitinib” value ([10]; PX-866 PO 2.5 mg/kg QOD × 14, 4 hr before gefitinib 75 mg/kg po) was 18% and 18.1%, the “Tumor T/C %” value ([10]; PX-866 PO 2.5 mg/kg QOD × 14 alone, 2.5 mg/kg) was 41% and 40.8% and the “combination antitumor activity, large tumors” value ([10]; PX-866 with gefitinib, 600 mm3 A-549 tumor xenografts (FIG. 7B)) was “Increased combination antitumor activity”. For the same compound, the “tumor T/Cs” value ([10]; administered long term, single agent (discussion)) was “around 50%”, the “activity of combination with gefitinib by timing” value ([10]; alternating day schedule, preliminary studies, data not shown) was “more active when administered 4 hr before rather than 24 hr after gefitinib” and the ALT ([11]; PX-866 1.5 mg/kg po every other day for 14 doses) was 65.6 ± 27.5 U/l. The AST [11, 21] was 140.5 ± 35.2 U/l, the Hb [11, 21] was 14.6 ± 0.3 g/dL and the Weight change [11, 21] was 3.9 ± 0.6 g. For the same compound, the ALT ([11]; PX-866 3 mg/kg po every other day for 14 doses) was 47.6 ± 16.8 U/l, the AST [11, 22] was 152.0 ± 47.2 U/l and the Hb [11, 22] was 14.7 ± 0.4 g/dL. For the same compound, the LY [11, 22] was 5.2 ± 3.9 K/μl, the MO [11, 22] was 9.2 ± 3.6 K/μl and the Plt [11, 22] was 1665 ± 227 K/μl. The “gain in body weight as % of the control weight gain” value ([11]; PX-866 3 mg/kg po) was 28%, the ALT ([11]; PX-866 10 mg/kg iv every other day for 14 doses) was 35.5 ± 11.7 U/l and the AST [11, 23] was 105.2 ± 19.2 U/l. For the same compound, the Hb [11, 23] was 14.4 ± 0.1 g/dL, the LY [11, 23] was 1.8 ± 0.5 K/μl and the MO [11, 23] was 1.1 ± 0.2 K/μl. For the same compound, the Ne [11, 23] was 14.0 ± 2.7 K/μl, the Plt [11, 23] was 1390 ± 43 K/μl and the WBC [11, 23] was 14.6 ± 4.2 K/μl. The glucose [11, 23] was 76.2 ± 3.6 mg/dL, the “gain in body weight as % of the control weight gain” value ([11]; PX-866 10 mg/kg iv) was 83% and the “time for changes in body weight, plasma glucose and blood cell counts to return to normal after treatment stopped” value ([11]; scid mice, long term PX-866) was ≤ 9 days. For the same compound, the “antitumor activity with bevacizumab” value [12] was “significantly increased the antitumor activity of bevacizumab”.
